# Molecular target: Nsp9COV19(C73S) as substrate of Nsp12COV19 NiRAN domain (Severe acute respiratory syndrome coronavirus 2, UniProt P0DTD1, C4213S)
# Format: biochemical, SARS-CoV-2
smiles,measurement,value
"C=C1C(=O)[C@]23[C@H](O)[C@H]1CC[C@H]2[C@@]12CO[C@]3(O)[C@@H](O)[C@@H]1C(C)(C)CC[C@@H]2O [Compound 1, Oridonin]",level of inhibition with mutant Nsp9 compared with wild-type,approximately threefold lower

# — paper PMC8553373 (The Journal of Biological Chemistry, 2021)
